Results taken from the NIST ThermoML archive (doi:10.1021/je300134c).

Experiments:
[1] = Liquid; for speed of sound: Sing-around technique in a fixed-path interferometer; for mass density: Vibrating tube method
[2] = xn = mol fraction of the nth substance listed; conditions: 101 kPa, Liquid, x2 = 0; for mass density: Vibrating tube method; for speed of sound: Sing-around technique in a fixed-path interferometer

CCCC[n+]1ccn(CC)c1.O=S(=O)([O-])C(F)(F)F
[1], 101.33 kPa
Conditions	mass density [kg/m3]	speed of sound [m/s]
278.15 K	1278.02	1420.6
288.15 K	1269.97	1396.3
298.15 K	1262.21	1373.1
308.15 K	1254.44	1350.6
318.15 K	1246.71	1328.6
328.15 K	1239.01	1307.1
338.15 K	1231.35	1286.1

CCCC[N+]1(C)CCCC1.O=S(=O)([O-])C(F)(F)F [1-butyl-1-methylpyrrolidinium trifluoromethanesulfonate]
[1], 101.33 kPa
Conditions	mass density [kg/m3]	speed of sound [m/s]
278.15 K	1267.23	1513.5
288.15 K	1259.74	1486.1
298.15 K	1252.26	1461.4
308.15 K	1245.09	1437.8
318.15 K	1237.94	1414.9
328.15 K	1230.81	1392.7
338.15 K	1223.73	1371.1

CCCCn1cc[n+](C)c1.O=S(=O)([O-])C(F)(F)F [1-butyl-3-methylimidazolium trifluoromethanesulfonate]
[1], 101.33 kPa
Conditions	mass density [kg/m3]	speed of sound [m/s]
288.15 K	1304.56	1416
298.15 K	1296.67	1393
308.15 K	1288.78	1370.7
318.15 K	1280.95	1349
328.15 K	1273.16	1327.8
338.15 K	1265.44	1307

O [water]
[1], 101 kPa
Conditions	mass density [kg/m3]	speed of sound [m/s]
278.15 K	999.99	–
318.15 K	–	1536.8
328.15 K	985.7	1547.7
338.15 K	980.56	1553.6

O [water] + CCCC[N+]1(C)CCCC1.O=S(=O)([O-])C(F)(F)F
[2]
Conditions	mass density [kg/m3]	speed of sound [m/s]
278.15 K	999.99	–
318.15 K	–	1536.8
328.15 K	985.7	1547.7
338.15 K	980.56	1553.6

O [water] + CCCC[n+]1ccn(CC)c1.O=S(=O)([O-])C(F)(F)F
[2]
Conditions	mass density [kg/m3]	speed of sound [m/s]
278.15 K	999.99	–
318.15 K	–	1536.8
328.15 K	985.7	1547.7
338.15 K	980.56	1553.6

O [water] + CCCCn1cc[n+](C)c1.O=S(=O)([O-])C(F)(F)F
[2]
Conditions	mass density [kg/m3]	speed of sound [m/s]
318.15 K	–	1536.8
328.15 K	985.7	1547.7
338.15 K	980.56	1553.6
